According to US12173018B2, “Penicillin-binding protein inhibitors” (priority 2018, dated 2024):
Values after ≈ are worked out from the molar mass of the structure shown. Where two headings read alike, the source gives them in different places.

Key:
E. coli PBP3 = E. coli PBP3 (Escherichia coli (strain K12), UniProt P0AD68); assay: E. coli PBP3 Bocillin-FL fluorescence polarization competition binding assay
How it was run: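 Purified E. coli PBP (1.5 μM final) competed with inhibitor (0-1000 μM) for Bocillin-FL (0.1 μM final) in 50 mM Hepes pH 8.0, 300 mM NaCl, 5% glycerol. Fluorescence polarization (ex 490/em 520 nm) was read continuously for 60 min after Bocillin-FL addition. EC50 was the concentration that reduced Bocillin-FL binding by 50%.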

E. coli PBP1a = E. coli PBP1a (Escherichia coli (strain K12), UniProt P02918); assay: Radioligand competition binding assay with 14C-labeled boronic acid probe, PBP1a
Chain of E. coli PBP1a (P02918 whole entry): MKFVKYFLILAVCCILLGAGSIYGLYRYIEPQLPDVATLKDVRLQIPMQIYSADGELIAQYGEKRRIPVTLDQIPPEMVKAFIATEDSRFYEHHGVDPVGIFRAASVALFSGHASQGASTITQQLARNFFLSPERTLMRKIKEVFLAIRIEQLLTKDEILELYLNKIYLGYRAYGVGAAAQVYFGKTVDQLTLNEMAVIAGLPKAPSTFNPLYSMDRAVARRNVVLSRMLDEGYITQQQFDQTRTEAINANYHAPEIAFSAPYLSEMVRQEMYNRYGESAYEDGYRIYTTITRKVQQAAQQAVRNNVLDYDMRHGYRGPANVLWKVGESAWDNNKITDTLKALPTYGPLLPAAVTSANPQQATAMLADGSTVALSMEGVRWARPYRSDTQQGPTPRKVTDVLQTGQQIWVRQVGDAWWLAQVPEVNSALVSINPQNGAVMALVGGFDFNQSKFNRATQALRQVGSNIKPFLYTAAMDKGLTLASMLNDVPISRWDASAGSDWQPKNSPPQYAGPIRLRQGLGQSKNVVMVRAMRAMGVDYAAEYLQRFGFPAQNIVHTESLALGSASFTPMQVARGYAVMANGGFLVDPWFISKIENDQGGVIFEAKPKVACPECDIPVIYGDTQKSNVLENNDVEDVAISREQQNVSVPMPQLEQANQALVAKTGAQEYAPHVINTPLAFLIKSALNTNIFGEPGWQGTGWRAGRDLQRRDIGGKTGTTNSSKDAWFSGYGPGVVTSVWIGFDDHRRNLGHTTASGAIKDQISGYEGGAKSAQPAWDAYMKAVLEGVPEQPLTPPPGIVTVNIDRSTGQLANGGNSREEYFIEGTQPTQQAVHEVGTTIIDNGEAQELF
Excerpt: To determine the ability of boronic acid-based test PBP inhibitors to bind Penicillin Binding Proteins (PBPs), a radio-labelled boronic acid PBP inhibitor
[drawing 751] was used in competition binding assays to determine boronic acid PBP inhibitor binding to PBP1a or PBP1b from Escherichia coli. PBP1a and PBP1b were purified as described previously (Bertsche, U.; et al., J. Biol. Chem. 2005, 280 (45), 38096-38101; Born, P.; et al., J. Biol. Chem. 2006. 281 (37), 26985-26993). To establish assay conditions for competition binding, an enzyme titration/saturation binding experiment was performed. Saturation binding was performed in a buffer comprised of 20 mM Tris (pH 7.5), 500 mM NaCl and 0.1% (v/v) TritonX-100, with PBP1a/PBP1b at a final concentration of 0.1 μM and Compound A at final concentrations ranging from 0-100 μM. Mixtures were incubated for 60 minutes, then applied to Zeba Spin Desalting columns or plates (ThermoFisher Scientific) and centrifuged at 1000-1500×g for 2 minutes. The flow through, containing PBP bound with Compound A, was recovered and 100 μL mixed with 5 mL of UltimaGold liquid scintillation cocktail (Perkin Elmer), and the radioactivity counted using a Beckman Coulter LS 6500 Multipurpose scintillation counter. PBP binding of Compound A approached saturation at 20 μM of ^14C-labeled probe. The competition binding assay was validated using the beta-lactam ampicillin, with Compound A at a final concentration of 20 μM, PBP1a/PBP1b at a final concentration of 0.1 μM. PBP1a/PBP1b was incubated with ampicillin in a 96-well microplate for 60 minutes, then Compound A was added and the mixtures incubated for an additional 60 minutes. The mixtures were then applied to Zeba Spin desalting plates and centrifuged at 1000×g for 2 minutes. The flow through was recovered and 100 μl mixed with 5 ml of UltimaGold liquid scintillation cocktail and the radioactivity counted. […] Binding assays with boronic acid PBP inhibitors were performed in an identical fashion. The potency of boronic acid PBP inhibitors was reported as the EC50 value.

[1] = test system: engineered strain of Escherichia coli harboring CTX-M15; assay: microbe, parasite or virus in culture; format: cell-based; details: Escherichia coli, read-out: Microbiological Activity (MIC in mg/L), E. coli DH5α/pLBII-CTX-M15, engineered strain producing CTX-M15
E. coli AG100 = assay: Broth microdilution MIC, E. coli AG100 (wild-type parent); format: cell-based; details: Escherichia coli; wild-type parent E. coli AG100, broth microdilution; read-out: MIC E. coli AG100
How it was run: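 Starting inoculum of 5×10^5 CFU/mL, from colonies grown 3-5 h in Mueller-Hinton broth with divalent cations, added to two-fold compound dilution series.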

E. coli 901C = assay: microbe, parasite or virus in culture; format: cell-based; details: Escherichia coli; hyper-permeable E. coli 901C, broth microdilution; read-out: MIC E. coli 901C
How it was run: (§1)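 Broth microdilution MICs followed CLSI methods in cation-supplemented Mueller-Hinton broth, with 2-fold serial compound dilutions. Log-phase cultures grown 3–5 h were added to a starting inoculum of 5×10^5 CFU/mL and incubated 16–20 h at 37 °C. The MIC was read visually as the lowest concentration with no growth.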

K. pneumoniae UMM = assay: microbe, parasite or virus in culture; format: cell-based; details: Klebsiella pneumoniae; K. pneumoniae UMM producing SHV-5 and KPC-2; read-out: MIC K. pneumoniae UMM
How it was run: as §1

E. coli AG100A = assay: microbe, parasite or virus in culture; format: cell-based; details: Escherichia coli, read-out: MIC E. coli AG100A
How it was run: as §1

E. coli ATCC 25922 = assay: Broth microdilution MIC, E. coli ATCC 25922; format: cell-based; details: Escherichia coli, ATCC25922; E. coli ATCC 25922, broth microdilution; read-out: MIC E. coli 25922
How it was run: as §1

E. coli PBP2 = E. coli PBP2 (Escherichia coli (strain K12), UniProt P0AD65); assay: E. coli PBP2 Bocillin-FL fluorescence polarization competition binding assay; details: fluorescence polarization competition binding with Bocillin-FL; read-out: E. coli K12 PBP2 Potency (EC50)
Chain of E. coli PBP2 (P0AD65 whole entry): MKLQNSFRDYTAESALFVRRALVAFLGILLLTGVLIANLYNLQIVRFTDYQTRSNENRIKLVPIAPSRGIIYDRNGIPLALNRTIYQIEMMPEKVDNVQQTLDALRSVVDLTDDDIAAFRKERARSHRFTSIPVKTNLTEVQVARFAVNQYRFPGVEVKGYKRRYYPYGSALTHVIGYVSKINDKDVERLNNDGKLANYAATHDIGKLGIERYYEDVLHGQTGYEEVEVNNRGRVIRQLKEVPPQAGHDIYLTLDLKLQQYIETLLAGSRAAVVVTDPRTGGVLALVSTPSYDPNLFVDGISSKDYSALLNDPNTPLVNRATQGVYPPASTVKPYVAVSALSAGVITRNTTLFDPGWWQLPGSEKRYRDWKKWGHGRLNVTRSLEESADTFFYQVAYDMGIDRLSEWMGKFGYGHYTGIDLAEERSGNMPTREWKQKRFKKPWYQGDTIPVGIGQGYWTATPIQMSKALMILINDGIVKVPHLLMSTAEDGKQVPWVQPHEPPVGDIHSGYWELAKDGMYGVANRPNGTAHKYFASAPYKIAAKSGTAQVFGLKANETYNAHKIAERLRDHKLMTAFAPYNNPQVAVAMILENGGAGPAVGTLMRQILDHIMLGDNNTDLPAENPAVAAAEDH
Excerpt: To determine the ability of boronic acid-based test PBP inhibitors to bind Penicillin Binding Proteins (PBPs), Bocillin-FL (fluorescently-labeled penicillin V; ThermoFisher Scientific) was used in a fluorescence polarization (FP) competition binding assay to assess inhibitor binding to PBP2, PBP3 or PBP4 from Escherichia coli. PBPs were cloned and purified as described previously (King, D. T, et al., ACS Infectious Diseases 2015, 1, 175-184). To establish assay conditions for competition binding, an enzyme titration/saturation binding experiment was initially performed. Bocillin-FL was prepared at 0.2 μM in a buffer comprised of 50 mM Hepes (pH 8.0), 300 mM NaCl and 5% (v/v) glycerol. Saturation binding was performed by mixing 40 μl of PBP solutions ranging in concentrations from 0-12 μM with 40 μl of the 0.2 μM Bocillin-FL solution, in individual wells of a black 384-well microplate. FP was measured immediately upon mixing (Excitation, 490 nm; Emission, 520 nm; g-factor, 0.96), using a Cytation3 (BioTek) microplate reader and measured continuously for up to 120 minutes. […] For all PBPs the FP signal approached saturation with 1.5 μM PBP (final concentration). […] Assays (80 μl final volume) were performed with PBPs at a final concentration of 1.5 μM, Bocillin-FL at 0.1 μM and beta-lactam concentrations that ranged from 0-1000 μM. […] Bocillin-FL was added and the FP immediately measured for 60 minutes (90 minutes for PBP2). The beta-lactam potency was reported as the concentration of beta-lactam required to reduce binding of Bocillin-FL by […] (EC50). […] Binding assays for boronic acid PBP inhibitors were performed in an identical fashion.

A. baumannii ATCC 19606 = assay: Broth microdilution MIC, A. baumannii ATCC 19606; format: cell-based; details: Acinetobacter baumannii, ATCC19606; A. baumannii ATCC 19606, broth microdilution; read-out: MIC A. baumannii ATCC 19606
Experimental: (§2) To determine the ability of test compounds to potentiate the inhibition of the growth of bacterial strains, classic cell based broth microdilution minimum inhibitory concentration (MIC) assays were employed. MIC assays are performed according to CLSI methods except where otherwise noted (CLSI, 2011 and CLSI, 2009). The reference type strain E. coli ATCC 25922, the wild-type parent strain E. coli AG100, the hyper-permeable E. coli 901C and E. coli D22 and the E. coli AG100A strain lacking the acrAB efflux pump encoding genes were used to determine the ability of the PBP inhibitors to penetrate the outer membrane of gram-negative bacteria and inhibit bacterial growth. […] The P. aeruginosa PAO1, P. aeruginosa ATCC 27853 and A. baumannii ATCC 19606, along with the hyper-permeable P. aeruginosa ATCC 35151 and an engineered efflux pump-compromised strain of P. aeruginosa (ΔmexAB-oprM) were used to determine the ability of PBP inhibitors to penetrate the outer membrane of P. aeruginosa and A. baumannii and assess antibacterial activity against these important gram-negative organisms.
(§3) Briefly, cryo-preserved bacterial cultures of challenge strains are streaked for isolation on appropriate agar medium, in this case Mueller Hinton II agar. Following incubation to allow growth of the colonies, plates are sealed with parafilm and stored refrigerated for up to two weeks. For preparation of assay inoculum and to ensure low variability, at least 5 colonies are picked from the agar plates with an inoculating loop and aseptically transferred to a culture tube containing 3 mL of Mueller-Hinton Broth (supplemented with divalent cations to required levels based on Manufacturers' certification). The broth culture is grown for 3-5 hours at 37° C. with shaking at 200 rpm. Meanwhile, 2-fold serial dilutions of test compounds are conducted in a 96 well plate with a final volume of 75 μL per well at 2-fold the final desired concentration. After the dilution plates are set up the growing cultures are then diluted in a cuvette containing MH II broth and the optical density is measured at 600 nm. The Inoculum is diluted such that 75 μL of this culture in Mueller-Hinton Broth results in a starting bacterial concentration of 5×10^5 CFU/mL when added to the dilution plates. The plates are incubated for 16-20 hours at 37° C. The MIC values are read visually as the lowest concentration well with no bacterial growth.

[2] = test system: P. aeruginosa (ΔmexAB-oprM); assay: microbe, parasite or virus in culture; format: cell-based; details: Pseudomonas aeruginosa, read-out: MIC P. aeruginosa ΔmexAB-OprM
How it was run: as §1

P. aeruginosa ATCC 35151 = assay: microbe, parasite or virus in culture; format: cell-based; details: Pseudomonas aeruginosa, ATCC35151; hyper-permeable P. aeruginosa ATCC 35151; read-out: MIC P. aeruginosa ATCC 35151
How it was run: as §1

P. aeruginosa PAO1 = assay: Broth microdilution MIC, P. aeruginosa PAO1; format: cell-based; details: Pseudomonas aeruginosa; P. aeruginosa PAO1, broth microdilution; read-out: MIC P. aeruginosa PAO1
Experimental: as §2, §3

K. pneumoniae 848844 = assay: microbe, parasite or virus in culture; format: cell-based, Klebsiella pneumoniae; details: Klebsiella pneumoniae; K. pneumoniae 848844 producing SHV-11 and KPC-2; read-out: MIC K. pneumoniae 848844
How it was run: as §1

K. pneumoniae SI-117 = assay: microbe, parasite or virus in culture; format: cell-based; details: Klebsiella pneumoniae, SI117, read-out: MIC K. pneumoniae SI-117
How it was run: as §1

E. coli D22 = assay: microbe, parasite or virus in culture; format: cell-based; details: Escherichia coli; hyper-permeable E. coli D22, broth microdilution; read-out: MIC E. coli D22
How it was run: as §1

Chain of E. coli PBP3 (P0AD68 whole entry): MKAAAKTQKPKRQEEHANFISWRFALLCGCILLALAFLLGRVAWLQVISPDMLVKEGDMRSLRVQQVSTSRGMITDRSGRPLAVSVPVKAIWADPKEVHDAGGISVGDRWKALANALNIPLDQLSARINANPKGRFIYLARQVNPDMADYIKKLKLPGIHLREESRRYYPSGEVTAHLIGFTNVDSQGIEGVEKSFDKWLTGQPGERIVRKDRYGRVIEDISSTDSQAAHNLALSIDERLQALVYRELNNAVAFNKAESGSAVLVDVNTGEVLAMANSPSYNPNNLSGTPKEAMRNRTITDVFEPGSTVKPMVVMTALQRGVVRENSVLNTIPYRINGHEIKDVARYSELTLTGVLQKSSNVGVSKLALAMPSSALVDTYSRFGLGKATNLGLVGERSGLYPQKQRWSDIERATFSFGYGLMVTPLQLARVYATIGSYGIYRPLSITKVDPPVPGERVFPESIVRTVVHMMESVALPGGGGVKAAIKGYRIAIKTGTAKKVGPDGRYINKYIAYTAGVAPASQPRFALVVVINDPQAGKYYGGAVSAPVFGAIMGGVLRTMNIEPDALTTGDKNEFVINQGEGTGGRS

Row | SMILES | EC50 (E. coli PBP3) [µM] | EC50 (E. coli PBP1a) [µM] | MIC [1] [mg/L] | MIC (E. coli AG100) [mg/L] | MIC (E. coli 901C) [mg/L] | MIC (K. pneumoniae UMM) [mg/L] | MIC (E. coli AG100A) [mg/L] | MIC (E. coli ATCC 25922) [mg/L] | also measured
1 | CCN1CCN(C(=O)NC(C(=O)N[C@H]2Cc3cccc(C(=O)O)c3OB2O)C(O)c2ccc(O)c(O)c2)C(=O)C1=O (stereo partly drawn) [Example 46, (3R)-3-(3-(3,4-dihydroxyphenyl)-2-(4-ethyl-2,3-dioxopiperazine-1-carboxamido)-3-hydroxypropanamido)-2-hydroxy-3,4-dihydro-2H-benzo[e][1,2]oxaborinine-8-carboxylic acid] | 30 to 500 | < 10 | – | – | – | – | – | – | –
2 | O=C(O)c1cccc2c1OB(O)[C@@H](NC(=O)C(NC(=O)N1CCN(CCF)C(=O)C1=O)c1ccc(O)cn1)C2 (stereo partly drawn) [Example 99, (3R)-3-(2-(4-(2-fluoroethyl)-2,3-dioxopiperazine-1-carboxamido)-2-(5-hydroxypyridin-2-yl)acetamido)-2-hydroxy-3,4-dihydro-2H-benzo[e][1,2]oxaborinine-8-carboxylic acid] | – | 10 to 100 | 32 to 64 (≈ 58.9 to 118 µM) | 32 to 64 | < 0.25 | 8 to 16 | 2 to 4 | 32 to 64 | EC50 (E. coli PBP3; fluorescence polarization competition binding with Bocillin-FL, read-out: E. coli K12 PBP3 Potency): < 30 µM
3 | CCN1CCN(C(=O)N[C@@H](C(=O)N[C@H]2Cc3ccc(F)c(C(=O)O)c3OB2O)c2ccsc2)C(=O)C1=O [Example 138, (R)-3-((R)-2-(4-ethyl-2,3-dioxopiperazine-1-carboxamido)-2-(thiophen-3-yl)acetamido)-7-fluoro-2-hydroxy-3,4-dihydro-2H-benzo[e][1,2]oxaborinine-8-carboxylic acid] | < 30 | – | – | – | – | – | – | – | EC50 (E. coli PBP2): > 500 µM; MIC (A. baumannii ATCC 19606): > 128 mg/L; MIC [2]: 32 to 64 mg/L; MIC (P. aeruginosa ATCC 35151): 0.5 to 1 mg/L; MIC (P. aeruginosa PAO1): > 128 mg/L
4 | Nc1ncc(C(NC(=O)N2CCN(CCF)C(=O)C2=O)C(=O)N[C@H]2Cc3cccc(C(=O)O)c3OB2O)s1 (stereo partly drawn) [Example 100, (3R)-3-(2-(2-aminothiazol-5-yl)-2-(4-(2-fluoroethyl)-2,3-dioxopiperazine-1-carboxamido)acetamido)-2-hydroxy-3,4-dihydro-2H-benzo[e][1,2]oxaborinine-8-carboxylic acid] | 30 to 500 | 10 to 100 | 8 to 16 (≈ 14.6 to 29.2 µM) | 32 to 64 | 0.5 to 1 | 8 to 16 | 2 to 4 | 32 to 64 | MIC (K. pneumoniae 848844): 32 to 64 mg/L; MIC (K. pneumoniae SI-117): 8 to 16 mg/L; MIC (E. coli D22): 8 to 16 mg/L
5 | CCN1CCN(C(=O)NC(C(=O)N[C@H]2Cc3cccc(C(=O)O)c3OB2O)c2ccc(OCCF)cc2)C(=O)C1=O (stereo partly drawn) [Example 76, (3R)-3-(2-(4-ethyl-2,3-dioxopiperazine-1-carboxamido)-2-(4-(2-fluoroethoxy)phenyl)acetamido)-2-hydroxy-3,4-dihydro-2H-benzo[e][1,2]oxaborinine-8-carboxylic acid] | 30 to 500 | < 10 | 128 to 256 (≈ 224 to 449 µM) | – | – | – | – | – | –
6 | CCN1CCN(C(=O)NC(C(=O)N[C@H]2Cc3cccc(C(=O)O)c3OB2O)c2ccc(O)nc2F)C(=O)C1=O (stereo partly drawn) [Example 86, (3R)-3-(2-(4-ethyl-2,3-dioxopiperazine-1-carboxamido)-2-(2-fluoro-6-hydroxypyridin-3-yl)acetamido)-2-hydroxy-3,4-dihydro-2H-benzo[e][1,2]oxaborinine-8-carboxylic acid] | 30 to 500 | < 10 | 128 to 256 (≈ 236 to 471 µM) | – | – | – | – | – | –
